Test results from ChEMBL document CHEMBL4507265 (2021).

Columns and labels:
[1] = system: Tyrosine-protein kinase ABL1 (Homo sapiens), P00519 [Q252H]; conditions: Compound concentration 1000.0 nM
[2] = biological target: Tyrosine-protein kinase receptor UFO (Homo sapiens) (UniProt P30530); conditions: Compound concentration 1000.0 nM
[3] = biological target: Bone morphogenetic protein receptor type-1B (Homo sapiens) (UniProt O00238); conditions: Compound concentration 1000.0 nM
[4] = biological target: Cytoplasmic tyrosine-protein kinase BMX (Homo sapiens) (UniProt P51813); conditions: Compound concentration 1000.0 nM
[5] = biological target: Serine/threonine-protein kinase Chk2 (Homo sapiens) (UniProt O96017); conditions: Compound concentration 1000.0 nM
[6] = biological target: Casein kinase I isoform delta (Homo sapiens) (UniProt P48730); conditions: Compound concentration 1000.0 nM
[7] = biological target: Death-associated protein kinase 1 (Homo sapiens) (UniProt P53355); conditions: Compound concentration 1000.0 nM
[8] = biological target: Discoidin domain-containing receptor 2 (Homo sapiens) (UniProt Q16832); conditions: Compound concentration 1000.0 nM
[9] = system: Epidermal growth factor receptor (Homo sapiens), P00533 [L858R,T790M]; conditions: Compound concentration 1000.0 nM
[10] = biological target: Receptor tyrosine-protein kinase erbB-3 (Homo sapiens) (UniProt P21860); conditions: Compound concentration 1000.0 nM
[11] = biological target: Fibroblast growth factor receptor 4 (Homo sapiens) (UniProt P22455); conditions: Compound concentration 1000.0 nM
[12] = biological target: Vascular endothelial growth factor receptor 1 (Homo sapiens) (UniProt P17948); conditions: Compound concentration 1000.0 nM
[13] = biological target: Glycogen synthase kinase-3 alpha (Homo sapiens) (UniProt P49840); conditions: Compound concentration 1000.0 nM
[14] = biological target: Interleukin-1 receptor-associated kinase 1 (Homo sapiens) (UniProt P51617); conditions: Compound concentration 1000.0 nM
[15] = biological target: Tyrosine-protein kinase JAK3 (Homo sapiens) (UniProt P52333); conditions: Compound concentration 1000.0 nM
[16] = biological target: Mitogen-activated protein kinase kinase kinase 13 (Homo sapiens) (UniProt O43283); conditions: Compound concentration 1000.0 nM
[17] = system: Hepatocyte growth factor receptor (Homo sapiens), P08581 [Y1235D]; conditions: Compound concentration 1000.0 nM
[18] = biological target: Serine/threonine-protein kinase 3 (Homo sapiens) (UniProt Q13188); conditions: Compound concentration 1000.0 nM
[19] = biological target: Myosin-IIIa (Homo sapiens) (UniProt Q8NEV4); conditions: Compound concentration 1000.0 nM
[20] = biological target: Serine/threonine-protein kinase OSR1 (Homo sapiens) (UniProt O95747); conditions: Compound concentration 1000.0 nM
[21] = biological target: Mitogen-activated protein kinase 14 (Homo sapiens) (UniProt Q16539); conditions: Compound concentration 1000.0 nM
[22] = biological target: Serine/threonine-protein kinase PAK 6 (Homo sapiens) (UniProt Q9NQU5); conditions: Compound concentration 1000.0 nM
[23] = biological target: Cyclin-dependent kinase 18 (Homo sapiens) (UniProt Q07002); conditions: Compound concentration 1000.0 nM
[24] = biological target: Platelet-derived growth factor receptor beta (Homo sapiens) (UniProt P09619); conditions: Compound concentration 1000.0 nM
[25] = system: Phosphatidylinositol 4,5-bisphosphate 3-kinase catalytic subunit alpha isoform (Homo sapiens), P42336 [H1047Y]; conditions: Compound concentration 1000.0 nM
[26] = biological target: Protein kinase C delta type (Homo sapiens) (UniProt Q05655); conditions: Compound concentration 1000.0 nM
[27] = biological target: Interferon-induced, double-stranded RNA-activated protein kinase (Homo sapiens) (UniProt P19525); conditions: Compound concentration 1000.0 nM
[28] = biological target: RAF proto-oncogene serine/threonine-protein kinase (Homo sapiens) (UniProt P04049); conditions: Compound concentration 1000.0 nM
[29] = biological target: Serine/threonine-protein kinase RIO1 (Homo sapiens) (UniProt Q9BRS2); conditions: Compound concentration 1000.0 nM
[30] = biological target: Rho-associated protein kinase 1 (Homo sapiens) (UniProt Q13464); conditions: Compound concentration 1000.0 nM
[31] = biological target: Ribosomal protein S6 kinase alpha-5 (Homo sapiens) (UniProt O75582); conditions: Compound concentration 1000.0 nM
[32] = biological target: Non-receptor tyrosine-protein kinase TNK1 (Homo sapiens) (UniProt Q13470); conditions: Compound concentration 1000.0 nM
[33] = biological target: Serine/threonine-protein kinase TNNI3K (Homo sapiens) (UniProt Q59H18); conditions: Compound concentration 1000.0 nM
[34] = biological target: Transient receptor potential cation channel subfamily M member 6 (Homo sapiens) (UniProt Q9BX84); conditions: Compound concentration 1000.0 nM
[35] = biological target: 5-hydroxytryptamine receptor 2B (Homo sapiens) (UniProt P41595); conditions: Compound concentration 10.0 uM
[36] = biological target: T1, D(4) dopamine receptor (Homo sapiens) (UniProt P21917); conditions: Compound concentration 10.0 uM
T1 sequence (whole entry): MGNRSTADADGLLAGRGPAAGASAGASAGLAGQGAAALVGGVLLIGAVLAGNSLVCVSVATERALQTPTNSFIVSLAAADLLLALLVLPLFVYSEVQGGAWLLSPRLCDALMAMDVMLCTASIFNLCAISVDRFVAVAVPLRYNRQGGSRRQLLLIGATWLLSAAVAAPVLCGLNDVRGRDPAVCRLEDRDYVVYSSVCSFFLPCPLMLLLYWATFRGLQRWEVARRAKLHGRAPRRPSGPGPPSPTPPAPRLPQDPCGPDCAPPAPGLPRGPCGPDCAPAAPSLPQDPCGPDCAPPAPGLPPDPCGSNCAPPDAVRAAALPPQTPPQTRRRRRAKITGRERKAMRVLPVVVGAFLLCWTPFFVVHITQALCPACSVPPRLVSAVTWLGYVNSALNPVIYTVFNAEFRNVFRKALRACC

[37] = biological target: D(1B) dopamine receptor (Homo sapiens) (UniProt P21918); conditions: Compound concentration 10.0 uM
[38] = biological target: Sodium-dependent noradrenaline transporter (Homo sapiens) (UniProt P23975); conditions: Compound concentration 10.0 uM
[39] = biological target: Alpha-2B adrenergic receptor (Homo sapiens) (UniProt P18089); conditions: Compound concentration 10.0 uM
[40] = biological target: Sigma intracellular receptor 2 (Homo sapiens, UniProt Q5BJF2); conditions: Compound concentration 10.0 uM

Chain of Alpha-2B adrenergic receptor (Homo sapiens) (P18089 whole entry): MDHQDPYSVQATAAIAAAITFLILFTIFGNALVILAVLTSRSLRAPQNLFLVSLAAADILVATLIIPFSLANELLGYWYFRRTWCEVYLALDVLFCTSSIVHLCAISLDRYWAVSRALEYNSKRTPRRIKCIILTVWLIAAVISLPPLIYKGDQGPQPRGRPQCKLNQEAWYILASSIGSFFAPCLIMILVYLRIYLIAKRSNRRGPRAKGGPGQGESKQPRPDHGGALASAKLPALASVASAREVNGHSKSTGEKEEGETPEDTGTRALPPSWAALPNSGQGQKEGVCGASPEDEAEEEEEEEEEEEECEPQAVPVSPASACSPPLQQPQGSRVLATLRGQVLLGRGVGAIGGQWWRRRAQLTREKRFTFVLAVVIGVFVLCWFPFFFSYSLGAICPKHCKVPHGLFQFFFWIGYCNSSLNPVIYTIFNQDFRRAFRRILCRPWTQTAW
Chain of Tyrosine-protein kinase receptor UFO (Homo sapiens) (P30530 whole entry): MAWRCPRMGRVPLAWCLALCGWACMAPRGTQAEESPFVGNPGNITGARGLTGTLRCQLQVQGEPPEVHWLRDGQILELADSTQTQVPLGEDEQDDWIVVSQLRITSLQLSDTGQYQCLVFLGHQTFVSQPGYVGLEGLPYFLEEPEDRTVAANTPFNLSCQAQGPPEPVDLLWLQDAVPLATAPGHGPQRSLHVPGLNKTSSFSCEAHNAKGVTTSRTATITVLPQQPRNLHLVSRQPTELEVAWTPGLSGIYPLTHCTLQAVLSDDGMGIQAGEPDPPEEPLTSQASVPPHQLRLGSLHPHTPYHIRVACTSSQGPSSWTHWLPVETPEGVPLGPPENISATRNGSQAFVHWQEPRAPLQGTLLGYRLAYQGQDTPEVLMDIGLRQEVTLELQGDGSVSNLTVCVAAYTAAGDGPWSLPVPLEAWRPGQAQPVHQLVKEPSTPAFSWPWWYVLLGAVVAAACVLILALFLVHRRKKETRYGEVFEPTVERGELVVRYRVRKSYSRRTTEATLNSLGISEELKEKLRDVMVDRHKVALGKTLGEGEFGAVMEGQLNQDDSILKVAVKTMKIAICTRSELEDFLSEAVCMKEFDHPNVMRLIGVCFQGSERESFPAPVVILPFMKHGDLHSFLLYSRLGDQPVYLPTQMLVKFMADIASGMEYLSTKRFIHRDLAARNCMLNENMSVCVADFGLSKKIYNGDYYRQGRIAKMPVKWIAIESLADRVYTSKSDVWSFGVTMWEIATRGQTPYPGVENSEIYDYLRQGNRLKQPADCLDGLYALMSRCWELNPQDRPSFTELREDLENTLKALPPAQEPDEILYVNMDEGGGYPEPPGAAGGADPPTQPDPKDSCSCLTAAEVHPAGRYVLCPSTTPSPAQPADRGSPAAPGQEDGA
Chain of Myosin-IIIa (Homo sapiens) (Q8NEV4 whole entry): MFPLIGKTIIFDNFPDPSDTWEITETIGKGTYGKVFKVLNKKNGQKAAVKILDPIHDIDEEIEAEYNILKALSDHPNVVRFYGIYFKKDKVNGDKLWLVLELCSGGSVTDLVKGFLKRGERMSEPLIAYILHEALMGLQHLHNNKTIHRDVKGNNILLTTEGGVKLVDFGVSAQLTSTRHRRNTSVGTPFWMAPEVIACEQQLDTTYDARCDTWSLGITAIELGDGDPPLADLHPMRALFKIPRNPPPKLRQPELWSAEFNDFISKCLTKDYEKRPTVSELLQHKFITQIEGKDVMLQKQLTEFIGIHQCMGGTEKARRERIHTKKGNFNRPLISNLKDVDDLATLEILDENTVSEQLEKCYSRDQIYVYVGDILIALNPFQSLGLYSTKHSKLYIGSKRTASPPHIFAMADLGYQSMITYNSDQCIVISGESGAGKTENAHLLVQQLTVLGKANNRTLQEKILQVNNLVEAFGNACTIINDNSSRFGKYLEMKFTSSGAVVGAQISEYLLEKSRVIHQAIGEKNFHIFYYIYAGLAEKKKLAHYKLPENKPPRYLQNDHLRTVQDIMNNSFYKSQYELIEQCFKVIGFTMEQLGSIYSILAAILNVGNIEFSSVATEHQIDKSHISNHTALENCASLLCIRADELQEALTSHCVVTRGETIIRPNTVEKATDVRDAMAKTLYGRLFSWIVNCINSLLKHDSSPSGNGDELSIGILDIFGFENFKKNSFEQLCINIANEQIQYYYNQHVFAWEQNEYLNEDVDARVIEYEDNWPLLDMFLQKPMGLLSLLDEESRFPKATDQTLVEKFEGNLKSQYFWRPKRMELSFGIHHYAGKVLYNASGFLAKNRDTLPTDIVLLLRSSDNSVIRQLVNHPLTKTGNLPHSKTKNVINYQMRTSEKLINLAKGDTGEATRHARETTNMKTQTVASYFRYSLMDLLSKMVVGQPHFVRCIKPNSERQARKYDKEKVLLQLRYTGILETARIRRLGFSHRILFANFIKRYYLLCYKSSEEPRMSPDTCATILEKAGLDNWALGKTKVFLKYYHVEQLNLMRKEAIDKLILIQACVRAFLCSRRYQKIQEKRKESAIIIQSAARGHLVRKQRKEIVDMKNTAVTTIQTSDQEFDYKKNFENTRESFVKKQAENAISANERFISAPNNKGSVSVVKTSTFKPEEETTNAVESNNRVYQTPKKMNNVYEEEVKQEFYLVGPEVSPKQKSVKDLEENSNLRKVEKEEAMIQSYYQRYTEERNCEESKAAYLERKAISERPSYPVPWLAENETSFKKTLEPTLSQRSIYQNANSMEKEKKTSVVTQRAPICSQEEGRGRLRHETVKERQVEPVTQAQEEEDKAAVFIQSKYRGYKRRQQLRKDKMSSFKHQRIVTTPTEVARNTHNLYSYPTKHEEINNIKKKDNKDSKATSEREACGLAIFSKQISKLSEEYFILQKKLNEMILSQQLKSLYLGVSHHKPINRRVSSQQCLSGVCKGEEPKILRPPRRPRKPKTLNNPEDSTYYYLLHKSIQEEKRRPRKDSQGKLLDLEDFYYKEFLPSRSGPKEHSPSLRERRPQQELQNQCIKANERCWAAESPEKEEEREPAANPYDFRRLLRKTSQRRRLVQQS
Chain of Mitogen-activated protein kinase kinase kinase 13 (Homo sapiens) (O43283 whole entry): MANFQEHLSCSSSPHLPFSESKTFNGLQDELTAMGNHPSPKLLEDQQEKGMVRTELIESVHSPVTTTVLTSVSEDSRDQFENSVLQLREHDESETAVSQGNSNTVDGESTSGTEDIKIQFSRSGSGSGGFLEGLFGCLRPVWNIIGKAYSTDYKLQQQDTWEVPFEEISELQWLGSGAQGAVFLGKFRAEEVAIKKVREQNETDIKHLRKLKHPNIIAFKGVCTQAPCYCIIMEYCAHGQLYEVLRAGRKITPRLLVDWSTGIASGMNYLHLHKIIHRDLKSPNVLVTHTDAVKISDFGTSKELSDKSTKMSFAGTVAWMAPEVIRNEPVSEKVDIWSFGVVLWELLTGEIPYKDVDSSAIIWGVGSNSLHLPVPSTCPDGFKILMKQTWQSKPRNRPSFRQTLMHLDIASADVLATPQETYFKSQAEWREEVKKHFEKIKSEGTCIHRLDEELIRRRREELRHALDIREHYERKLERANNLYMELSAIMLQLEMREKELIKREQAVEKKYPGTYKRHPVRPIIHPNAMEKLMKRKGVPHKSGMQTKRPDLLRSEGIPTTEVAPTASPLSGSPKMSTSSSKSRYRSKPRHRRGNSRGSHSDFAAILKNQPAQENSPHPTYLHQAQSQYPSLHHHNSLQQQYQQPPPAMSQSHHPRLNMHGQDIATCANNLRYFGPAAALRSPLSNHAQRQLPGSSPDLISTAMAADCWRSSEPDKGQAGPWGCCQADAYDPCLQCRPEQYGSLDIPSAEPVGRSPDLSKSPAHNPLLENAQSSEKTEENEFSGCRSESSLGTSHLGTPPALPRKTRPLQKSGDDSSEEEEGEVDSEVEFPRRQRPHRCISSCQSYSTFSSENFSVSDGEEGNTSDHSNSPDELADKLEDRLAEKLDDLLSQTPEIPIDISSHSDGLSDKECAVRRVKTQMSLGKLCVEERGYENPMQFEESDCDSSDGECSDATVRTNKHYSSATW
Chain of Cyclin-dependent kinase 18 (Homo sapiens) (Q07002 whole entry): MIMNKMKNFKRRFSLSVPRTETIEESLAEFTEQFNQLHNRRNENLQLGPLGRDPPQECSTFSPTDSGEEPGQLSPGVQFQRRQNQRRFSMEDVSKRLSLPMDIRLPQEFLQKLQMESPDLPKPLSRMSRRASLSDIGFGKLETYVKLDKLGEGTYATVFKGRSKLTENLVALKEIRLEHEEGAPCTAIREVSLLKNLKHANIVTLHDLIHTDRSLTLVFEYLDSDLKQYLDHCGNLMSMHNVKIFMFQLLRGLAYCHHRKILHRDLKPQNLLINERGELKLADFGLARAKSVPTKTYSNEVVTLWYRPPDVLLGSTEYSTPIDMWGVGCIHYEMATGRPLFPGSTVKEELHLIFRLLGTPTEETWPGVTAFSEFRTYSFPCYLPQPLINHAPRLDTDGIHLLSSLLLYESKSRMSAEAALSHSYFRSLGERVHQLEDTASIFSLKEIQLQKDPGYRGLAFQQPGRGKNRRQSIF
Chain of Serine/threonine-protein kinase PAK 6 (Homo sapiens) (Q9NQU5 whole entry, looked up): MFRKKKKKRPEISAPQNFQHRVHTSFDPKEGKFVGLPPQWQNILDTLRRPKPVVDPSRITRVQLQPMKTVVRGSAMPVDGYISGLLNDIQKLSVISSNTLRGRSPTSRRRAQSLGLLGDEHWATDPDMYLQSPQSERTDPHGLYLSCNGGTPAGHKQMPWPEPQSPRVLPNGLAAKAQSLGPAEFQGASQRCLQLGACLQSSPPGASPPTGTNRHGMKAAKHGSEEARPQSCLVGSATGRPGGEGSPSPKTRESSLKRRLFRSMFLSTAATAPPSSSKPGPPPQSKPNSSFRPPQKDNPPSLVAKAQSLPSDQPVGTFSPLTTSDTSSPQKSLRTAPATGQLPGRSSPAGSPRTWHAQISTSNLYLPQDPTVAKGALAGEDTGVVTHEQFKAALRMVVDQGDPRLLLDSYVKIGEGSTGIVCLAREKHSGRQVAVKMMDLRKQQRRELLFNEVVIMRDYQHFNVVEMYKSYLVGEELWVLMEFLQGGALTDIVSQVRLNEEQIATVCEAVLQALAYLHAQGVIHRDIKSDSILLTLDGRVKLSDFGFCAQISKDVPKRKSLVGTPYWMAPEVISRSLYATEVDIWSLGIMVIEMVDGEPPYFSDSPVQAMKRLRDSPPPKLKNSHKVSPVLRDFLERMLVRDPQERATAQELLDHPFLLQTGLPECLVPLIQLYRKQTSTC

Structure (SMILES)	residual activity [1] [%]	residual activity [2] [%]	residual activity [3] [%]	residual activity [4] [%]	residual activity [5] [%]	residual activity [6] [%]	residual activity [7] [%]	residual activity [8] [%]	residual activity [9] [%]	residual activity [10] [%]	residual activity [11] [%]	residual activity [12] [%]	residual activity [13] [%]	residual activity [14] [%]	residual activity [15] [%]	residual activity [16] [%]	residual activity [17] [%]	residual activity [18] [%]	residual activity [19] [%]	residual activity [20] [%]	also measured
NS(=O)(=O)c1cc(NC(=O)Cc2ccccc2)ccc1Oc1cccc(Cl)c1 [BAY-1797]	55	93	94	94	81	93	90	87	75	100	95	80	93	73	96	73	100	78	100	78	residual activity [21]: 100%; residual activity [22]: 100%; residual activity [23]: 100%; residual activity [24]: 76%; residual activity [25]: 81%; residual activity [26]: 100%; residual activity [27]: 80%; residual activity [28]: 100%; residual activity [29]: 93%; residual activity [30]: 88%; residual activity [31]: 100%; residual activity [32]: 74%; residual activity [33]: 91%; residual activity [34]: 84%; inhibition [35]: 30.2%; inhibition [36]: 28.4%; inhibition [37]: 27.7%; inhibition [38]: 0.53%; inhibition [39]: 56.6%; inhibition [40]: 59.5%
NS(=O)(=O)c1cc(NC(=O)C2(c3ccccc3Cl)CC2)ccc1Oc1cccc(Cl)c1 [BAY-207]	71	89	81	87	100	83	98	96	88	84	100	100	90	79	64	100	61	94	93	100	residual activity [21]: 100%; residual activity [22]: 100%; residual activity [23]: 69%; residual activity [24]: 90%; residual activity [25]: 76%; residual activity [26]: 89%; residual activity [27]: 100%; residual activity [28]: 81%; residual activity [29]: 84%; residual activity [30]: 100%; residual activity [31]: 90%; residual activity [32]: 100%; residual activity [33]: 72%; residual activity [34]: 95%; inhibition [35]: 21.1%; inhibition [36]: 27%; inhibition [37]: 20.8%; inhibition [38]: 22.4%; inhibition [39]: 43.4%; inhibition [40]: 82%
